Reference: patent publication US20250136578A1 (Kolm Therapeutics Inc., priority 2023, published 2025)
Where two headings read alike, the source gives them in different places.

Tests used:
AR / CBP ternary complex = AR / CBP ternary complex (Homo sapiens, UniProt P10275+Q92793); test: Ternary complex formation assay (sandwich ELISA, AR capture, CBP antibody detection) in VCaP cell lysates; assay type: cell-based
Procedure, shortened: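 VCaP cells in 5% charcoal-stripped FBS were cultured ≥3 days and then given bifunctional compound for 1.5 h. Lysates went onto AR-antibody-coated plates. Bound CBP (or p300) was detected with a rabbit antibody plus HRP anti-rabbit, using QuantaRed chemifluorescence (ex 570/em 585) read immediately, at 5 min and at 15 min.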

VCaP cells = test: VCaP growth inhibition assay (CTG); assay type: cell-based; conditions: Homo sapiens, 216 h, 30 pM R1881, 9 days
Procedure: VCaP cells (ATCC Cat #CRL-2876) are plated at 1×10^4 cells per well of a white plastic 96-well cluster plate (Thermo Scientific Nunc Cat #165306) in 100 uL phenol red-free DMEM (Gibco Cat #21063-029) media with 5% CSS (Omega Scientific Cat #FB-04). Cluster plates are returned to the incubator (37*C/5% CO2) for 72 hours prior to treatment. Just prior to treatment, 100 uL of phenol red-free DMEM/5% CSS and 60 pM R1881 (Sigma Cat #R0908-10 mg) was added to each well of the cluster plates (Final R1881 concentration=30 pM). Compounds (200X) were added to each well in a volume of 1 uL, with serial dilutions (1:5) from 20 uM to 2 pM (final concentrations in well are 100 nM to 10 fM). Cluster plates are returned to the incubator for 9 days.
After the 9-day treatment period, media was removed from the cluster plates by inversion and 100 uL room temperature CTG reagent (Promega Cat #G7573) is added to each well. The cluster plates are placed on a shaker and incubated at room temperature for 20 minutes. Following this shaking/incubation, cluster plates are read on a luminometer (BMG ClarioStar). IC50 values are obtained by graphing the RLU data vs. compound concentration with nonlinear regression 4-parameter logistic curves (GraphPad Prism).

[1] = treated 1.5 hours, rabbit CBP or p300 antibody detection, average, read-out: Average Ternary Complex

AR / CBP ternary complex, sequence (P10275 whole entry): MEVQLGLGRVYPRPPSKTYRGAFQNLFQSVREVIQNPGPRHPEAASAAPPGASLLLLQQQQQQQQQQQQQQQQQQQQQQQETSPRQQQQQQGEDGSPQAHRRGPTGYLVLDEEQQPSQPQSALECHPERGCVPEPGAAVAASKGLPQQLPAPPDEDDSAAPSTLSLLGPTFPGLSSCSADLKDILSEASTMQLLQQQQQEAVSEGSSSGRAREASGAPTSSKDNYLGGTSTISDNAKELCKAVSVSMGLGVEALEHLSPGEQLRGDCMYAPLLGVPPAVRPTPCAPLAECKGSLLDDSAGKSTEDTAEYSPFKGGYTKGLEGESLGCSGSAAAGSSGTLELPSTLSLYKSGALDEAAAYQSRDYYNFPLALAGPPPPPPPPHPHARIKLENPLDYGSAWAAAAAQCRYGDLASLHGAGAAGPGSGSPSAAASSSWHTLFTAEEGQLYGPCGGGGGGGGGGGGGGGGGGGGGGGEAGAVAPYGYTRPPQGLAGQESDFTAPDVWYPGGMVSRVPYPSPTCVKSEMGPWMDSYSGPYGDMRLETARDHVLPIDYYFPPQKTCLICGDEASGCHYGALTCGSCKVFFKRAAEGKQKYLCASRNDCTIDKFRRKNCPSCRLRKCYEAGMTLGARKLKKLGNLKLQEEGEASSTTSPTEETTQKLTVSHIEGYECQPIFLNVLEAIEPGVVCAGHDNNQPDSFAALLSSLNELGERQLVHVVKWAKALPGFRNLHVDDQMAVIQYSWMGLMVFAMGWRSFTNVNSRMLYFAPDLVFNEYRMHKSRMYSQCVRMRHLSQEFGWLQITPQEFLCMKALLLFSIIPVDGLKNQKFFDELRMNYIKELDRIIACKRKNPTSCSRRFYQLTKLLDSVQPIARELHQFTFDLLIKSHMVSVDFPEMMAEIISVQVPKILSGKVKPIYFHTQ
AR / CBP ternary complex, sequence (Q92793 2-2442): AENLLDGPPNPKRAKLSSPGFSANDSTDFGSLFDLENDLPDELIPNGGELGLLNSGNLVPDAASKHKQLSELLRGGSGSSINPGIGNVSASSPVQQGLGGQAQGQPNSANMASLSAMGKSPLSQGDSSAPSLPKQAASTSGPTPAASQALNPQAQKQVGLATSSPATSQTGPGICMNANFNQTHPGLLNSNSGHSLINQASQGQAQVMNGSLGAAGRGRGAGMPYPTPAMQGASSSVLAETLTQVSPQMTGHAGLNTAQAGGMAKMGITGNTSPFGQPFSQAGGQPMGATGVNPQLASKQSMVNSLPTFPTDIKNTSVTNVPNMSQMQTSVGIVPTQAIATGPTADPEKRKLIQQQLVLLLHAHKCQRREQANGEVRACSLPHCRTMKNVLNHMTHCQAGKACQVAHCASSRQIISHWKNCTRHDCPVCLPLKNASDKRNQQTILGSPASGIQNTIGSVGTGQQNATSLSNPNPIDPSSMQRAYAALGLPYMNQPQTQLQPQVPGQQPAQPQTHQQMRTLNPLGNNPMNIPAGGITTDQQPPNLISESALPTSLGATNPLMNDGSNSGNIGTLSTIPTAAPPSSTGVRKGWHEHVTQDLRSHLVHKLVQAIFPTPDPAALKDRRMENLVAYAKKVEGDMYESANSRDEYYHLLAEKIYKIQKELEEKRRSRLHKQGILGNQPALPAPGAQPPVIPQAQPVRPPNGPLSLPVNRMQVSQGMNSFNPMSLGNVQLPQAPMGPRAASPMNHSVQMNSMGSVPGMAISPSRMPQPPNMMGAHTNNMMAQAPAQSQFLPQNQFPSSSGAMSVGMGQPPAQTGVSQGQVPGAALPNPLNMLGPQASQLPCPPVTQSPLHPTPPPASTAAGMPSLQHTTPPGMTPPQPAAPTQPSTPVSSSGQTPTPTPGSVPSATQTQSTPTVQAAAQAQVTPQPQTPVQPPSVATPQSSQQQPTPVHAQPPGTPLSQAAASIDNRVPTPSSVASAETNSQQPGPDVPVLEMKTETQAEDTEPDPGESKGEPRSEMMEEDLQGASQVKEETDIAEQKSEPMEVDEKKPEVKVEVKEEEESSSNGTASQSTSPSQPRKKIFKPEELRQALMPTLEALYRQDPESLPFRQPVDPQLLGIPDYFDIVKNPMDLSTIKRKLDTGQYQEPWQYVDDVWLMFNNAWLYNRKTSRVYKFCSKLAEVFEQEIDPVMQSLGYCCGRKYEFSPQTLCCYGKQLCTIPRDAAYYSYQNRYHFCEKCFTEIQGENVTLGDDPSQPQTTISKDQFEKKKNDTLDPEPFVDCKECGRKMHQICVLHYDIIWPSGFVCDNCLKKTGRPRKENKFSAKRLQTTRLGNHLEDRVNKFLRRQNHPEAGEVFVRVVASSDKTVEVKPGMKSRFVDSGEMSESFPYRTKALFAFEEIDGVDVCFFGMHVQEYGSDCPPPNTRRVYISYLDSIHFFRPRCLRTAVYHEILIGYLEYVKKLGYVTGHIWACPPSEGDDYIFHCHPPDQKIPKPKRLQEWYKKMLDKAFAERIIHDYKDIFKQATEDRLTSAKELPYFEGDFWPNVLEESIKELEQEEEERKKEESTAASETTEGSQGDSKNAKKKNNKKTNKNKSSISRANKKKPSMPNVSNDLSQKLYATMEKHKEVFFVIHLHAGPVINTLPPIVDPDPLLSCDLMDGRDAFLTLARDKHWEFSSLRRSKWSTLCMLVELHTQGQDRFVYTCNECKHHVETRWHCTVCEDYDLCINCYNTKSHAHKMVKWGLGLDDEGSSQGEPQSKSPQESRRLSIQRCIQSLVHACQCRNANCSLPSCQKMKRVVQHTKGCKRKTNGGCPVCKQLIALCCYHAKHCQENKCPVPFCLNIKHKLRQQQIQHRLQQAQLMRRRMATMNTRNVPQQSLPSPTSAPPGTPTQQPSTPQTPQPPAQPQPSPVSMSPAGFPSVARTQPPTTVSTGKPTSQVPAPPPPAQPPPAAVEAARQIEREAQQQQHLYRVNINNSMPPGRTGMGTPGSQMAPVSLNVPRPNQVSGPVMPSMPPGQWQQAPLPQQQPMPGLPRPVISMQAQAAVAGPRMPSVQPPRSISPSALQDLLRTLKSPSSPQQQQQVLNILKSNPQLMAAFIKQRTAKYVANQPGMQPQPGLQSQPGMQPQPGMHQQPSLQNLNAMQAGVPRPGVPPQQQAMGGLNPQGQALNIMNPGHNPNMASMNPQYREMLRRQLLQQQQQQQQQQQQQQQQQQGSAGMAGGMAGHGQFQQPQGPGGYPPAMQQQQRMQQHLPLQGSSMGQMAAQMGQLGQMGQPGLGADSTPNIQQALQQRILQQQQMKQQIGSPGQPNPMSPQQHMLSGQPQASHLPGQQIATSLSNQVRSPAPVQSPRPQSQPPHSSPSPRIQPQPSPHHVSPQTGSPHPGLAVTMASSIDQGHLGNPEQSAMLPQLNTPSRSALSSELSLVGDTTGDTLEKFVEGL

SMILES | EC50 (AR / CBP ternary complex; [1]) | IC50 (VCaP cells) | EC50 (AR / CBP ternary complex; read-out: Average Ternary Complex, treated 1.5 hours, rabbit CBP or p300 antibody detection)
CC(=O)N1CCc2c(c(-c3cccc4cc(-c5cnn(CCOC6CC7(C6)CN(c6ccc(C(=O)N[C@H]8CC[C@H](Oc9ccc(C#N)c(Cl)c9)CC8)nn6)C7)c5)ncc34)nn2C)C1 [Compound 64, 6-[6-[2-[4-[8-(5-acetyl-1-methyl-6,7-dihydro-4H-pyrazolo[4,3-c]pyridin-3-yl)-3-isoquinolyl]pyrazol-1-yl]ethoxy]-2-azaspiro[3.3]heptan-2-yl]-N-[4-(3-chloro-4-cyano-phenoxy)cyclohexyl]pyridazine-3-carboxamide] | 1 to 10 nM | 0.1 to 1 nM | –
CC(=O)N1CCc2c(c(-c3cccc4cc(-c5ccc(CCC6CCN(c7ccc(C(=O)N[C@H]8CC[C@H](Oc9ccc(C#N)c(Cl)c9)CC8)nn7)CC6)nc5)ncc34)nn2C)C1 [Compound 20, 6-[4-[2-[5-[8-(5-acetyl-1-methyl-6,7-dihydro-4H-pyrazolo[4,3-c]pyridin-3-yl)-3-isoquinolyl]-2-pyridyl]ethyl]-1-piperidyl]-N-[4-(3-chloro-4-cyano-phenoxy)cyclohexyl]pyridazine-3-carboxamide] | < 1 nM | ≤ 0.1 nM | –
CC(=O)N1CCc2c(c(N3CCCc4cc(-c5cnn(C)c5)c(C)cc43)nn2C2CCN(C3CCC4(CC3)CN(c3ccc(C(=O)N[C@H]5CC[C@H](Oc6ccc(C#N)c(C)c6C)CC5)nn3)C4)CC2)C1 [Compound 299] | < 1 nM | ≤ 0.1 nM | –
CC(=O)N1CCc2c(c(-c3cccc4cc(-c5cnn(CC6CC7(C6)CN(c6ccc(C(=O)N[C@H]8CC[C@H](Oc9ccc(C#N)c(Cl)c9)CC8)nn6)C7)c5)ncc34)nn2C)C1 [Compound 47, 6-[6-[[4-[8-(5-acetyl-1-methyl-6,7-dihydro-4H-pyrazolo[4,3-c]pyridin-3-yl)-3-isoquinolyl]pyrazol-1-yl]methyl]-2-azaspiro[3.3]heptan-2-yl]-N-[4-(3-chloro-4-cyano-phenoxy)cyclohexyl]pyridazine-3-carboxamide] | – | 0.1 to 1 nM | 1 to 10 nM
CC(=O)N1CCc2c(c(N3CCCc4cc(-c5cnn(C)c5)c(C(F)F)cc43)nn2C2CCN(CC3CC4CC3CN4c3ccc(C(=O)N[C@H]4CC[C@H](Oc5ccc(C#N)c(Cl)c5)CC4)nn3)CC2)C1 (stereo partly shown) [Compound 169, 6-[5-[[4-[5-acetyl-3-[7-(difluoromethyl)-6-(1-methylpyrazol-4-yl)-3,4-dihydro-2H-quinolin-1-yl]-6,7-dihydro-4H-pyrazolo[4,3-c]pyridin-1-yl]-1-piperidyl]methyl]-2-azabicyclo [2.2.1]heptan-2-yl]-N-[4-(3-chloro-4-cyano-phenoxy)cyclohexyl]pyridazine-3-carboxamide] | < 1 nM | ≤ 0.1 nM | –
CC(=O)N1CCc2c(c(-c3cccc4cc(-c5cnn(C)c5)ncc34)nn2C2CCN(CCC3CCN(c4ccc(C(=O)N[C@H]5CC[C@H](Oc6ccc(C#N)c(Cl)c6)CC5)nn4)CC3)CC2)C1 [Compound 5, 6-[4-[2-[4-[5-acetyl-3-[3-(1-methylpyrazol-4-yl)-8-isoquinolyl]-6,7-dihydro-4H-pyrazolo[4,3-c]pyridin-1-yl]-1-piperidyl]ethyl]-1-piperidyl]-N-[4-(3-chloro-4-cyano-phenoxy)cyclohexyl]pyridazine-3-carboxamide] | < 1 nM | ≤ 0.1 nM | –
CC(=O)N1CCc2c(c(N3CCCc4cc(-c5cnn(C)c5)c(C(F)F)cc43)nn2C2CCC3(CC2)CC(Oc2ccc(C(=O)N[C@H]4CC[C@H](Oc5ccc(C#N)c(C(F)(F)F)c5)CC4)nn2)C3)C1 (stereo partly shown) [Compound 246, 6-[7-[5-acetyl-3-[7-(difluoromethyl)-6-(1-methylpyrazol-4-yl)-3,4-dihydro-2H-quinolin-1-yl]-6,7-dihydro-4H-pyrazolo[4,3-c]pyridin-1-yl]spiro[3.5]nonan-2-yl]oxy-N-[4-[4-cyano-3-(trifluoromethyl)phenoxy]cyclohexyl]pyridazine-3-carboxamide] | < 1 nM | 1 to 100 nM | –
CC(=O)N1CCc2c(c(N3CCCc4cc(-c5cnn(C)c5)c(C(F)F)cc43)nn2[C@H]2CC[C@H](OC3CCN(c4ccc(C(=O)N[C@H]5CC[C@H](Oc6ccc(C#N)c(Cl)c6)CC5)nn4)CC3)CC2)C1 [Compound 205, 6-[4-[4-[5-acetyl-3-[7-(difluoromethyl)-6-(1-methylpyrazol-4-yl)-3,4-dihydro-2H-quinolin-1-yl]-6,7-dihydro-4H-pyrazolo[4,3-c]pyridin-1-yl]cyclohexoxy]-1-piperidyl]-N-[4-(3-chloro-4-cyano-phenoxy)cyclohexyl]pyridazine-3-carboxamide] | < 1 nM | ≤ 0.1 nM | –
CC(=O)N1CCc2c(c(N3CCCc4cc(-c5cnn(C)c5)c(C(F)F)cc43)nn2C2CCC3(CC2)CN(C2CN(c4ccc(C(=O)N[C@H]5CC[C@H](Oc6ccc(C#N)c(Cl)c6)CC5)nn4)C2)C3)C1 [Compound 237] | < 1 nM | ≤ 0.1 nM | –
C[C@@H]1CC(=O)Nc2cccc(N3CCCc4cc(-c5cnn(CC6CCN(c7ccc(C(=O)N[C@H]8CC[C@H](Oc9ccc(C#N)c(Cl)c9)CC8)nn7)CC6)c5)c(C(F)F)cc43)c2N1 [Compound 34, N-[4-(3-chloro-4-cyano-phenoxy)cyclohexyl]-6-[4-[[4-[7-(difluoromethyl)-1-[(4R)-4-methyl-2-oxo1,3,4,5-tetrahydro-1,5-benzodiazepin-6-yl]-3,4-dihydro-2H-quinolin-6-yl]pyrazol-1-yl]methyl]-1-piperidyl]pyridazine-3-carboxamide] | 1 to 10 nM | 0.1 to 1 nM | –
Cn1cc(-c2cc3cccc(-c4cc(C5CCN(CC6CCN(c7ccc(C(=O)N[C@H]8CC[C@H](Oc9ccc(C#N)c(Cl)c9)CC8)nn7)CC6)CC5)c5c(c4)n(C)c(=O)n5C)c3cn2)cn1 [Compound 31, N-[4-(3-chloro-4-cyano-phenoxy)cyclohexyl]-6-[4-[[4-[1,3-dimethyl-6-[3-(1-methylpyrazol-4-yl)-8-isoquinolyl]-2-oxo-benzimidazol-4-yl]-1-piperidyl]methyl]-1-piperidyl]pyridazine-3-carboxamide] | < 1 nM | ≤ 0.1 nM | –

Continued, in another order:

EC50 (AR / CBP ternary complex; [1]) | IC50 (VCaP cells) | SMILES | EC50 (AR / CBP ternary complex; read-out: Average Ternary Complex, treated 1.5 hours, rabbit CBP or p300 antibody detection)
< 1 nM | 0.1 to 1 nM | Cn1cc(-c2cc3cccc(-c4cc(C5=CCN(CC6CCN(c7ccc(C(=O)N[C@H]8CC[C@H](Oc9ccc(C#N)c(Cl)c9)CC8)nn7)CC6)CC5)c5c(c4)n(C)c(=O)n5C)c3cn2)cn1 [Compound 147, N-[4-(3-chloro-4-cyano-phenoxy)cyclohexyl]-6-[4-[[4-[1,3-dimethyl-6-[3-(1-methylpyrazol-4-yl)-8-isoquinolyl]-2-oxo-benzimidazol-4-yl]-3,6-dihydro-2H-pyridin-1-yl]methyl]-1-piperidyl]pyridazine-3-carboxamide] | –
< 1 nM | 0.1 to 1 nM | CC(=O)N1CCc2c(c(N3CCCc4nc(-c5ccc(CCC6CCN(c7ccc(C(=O)N[C@H]8CC[C@H](Oc9ccc(C#N)c(Cl)c9)CC8)nn7)CC6)nc5)ncc43)nn2C2CCOCC2)C1 [Compound 72, 6-[4-[2-[5-[5-(5-acetyl-1-tetrahydropyran-4-yl-6,7-dihydro-4H-pyrazolo[4,3-c]pyridin-3-yl)-7,8-dihydro-6H-pyrido[3,2-d]pyrimidin-2-yl]-2-pyridyl]ethyl]-1-piperidyl]-N-[4-(3-chloro-4-cyano-phenoxy)cyclohexyl]pyridazine-3-carboxamide] | –
< 1 nM | ≤ 0.1 nM | CC(=O)N1CCc2c(c(-c3cccc4cc(-c5ccc(CCN6CCN(c7ccc(C(=O)N[C@H]8CC[C@H](Oc9ccc(C#N)c(Cl)c9)CC8)nn7)CC6)nc5)ncc34)nn2C2CCOCC2)C1 [Compound 28, 6-[4-[2-[5-[8-(5-acetyl-1-tetrahydropyran-4-yl-6,7-dihydro-4H-pyrazolo[4,3-c]pyridin-3-yl)-3-isoquinolyl]-2-pyridyl]ethyl]piperazin-1-yl]-N-[4-(3-chloro-4-cyano-phenoxy)cyclohexyl]pyridazine-3-carboxamide] | –
< 1 nM | ≤ 0.1 nM | CC(=O)N1CCc2c(c(N3CCCc4cc(-c5cnn(C)c5)c(C(F)F)cc43)nn2C2CCN(C[C@@H]3CCN(c4ccc(C(=O)N[C@H]5CC[C@H](Oc6ccc(C#N)c(Cl)c6)CC5)nn4)C[C@@H]3C)CC2)C1 [Compound 233] | –
< 1 nM | ≤ 0.1 nM | CC(=O)N1CCc2c(c(N3CCCc4cc(-c5cnn(C)c5)c(C(F)F)cc43)nn2C2CC3(C2)CN(CC2CC4(C2)CN(c2ccc(C(=O)N[C@H]5CC[C@H](Oc6ccc(C#N)c(Cl)c6)CC5)nn2)C4)C3)C1 (stereo partly shown) [Compound 41, 6-[6-[[6-[5-acetyl-3-[7-(difluoromethyl)-6-(1-methylpyrazol-4-yl)-3,4-dihydro-2H-quinolin-1-yl]-6,7-dihydro-4H-pyrazolo[4,3-c]pyridin-1-yl]-2-azaspiro [3.3]heptan-2-yl]methyl]-2-azaspiro [3.3]heptan-2-yl]-N-[4-(3-chloro-4-cyano-phenoxy)cyclohexyl] pyridazine-3-carboxamide] | –
< 1 nM | ≤ 0.1 nM | CC(=O)N1CCc2c(c(-c3cccc4cc(-c5cnn(C6CCC7(CC6)CCN(c6ccc(C(=O)N[C@H]8CC[C@H](Oc9ccc(C#N)c(Cl)c9)CC8)nn6)CC7)c5)ncc34)nn2C2CCOCC2)C1 [Compound 182] | –
